# Measurements: patent US4211772A, “Benzopyran glycoside acetals and ketals” (Laboratoires Sarget, priority 1977, dated 1980)
# Read-outs that look alike come from different tables or passages of the source.
# What was measured:
# aldose reductase [1] = conditions: prior art statement; cited from earlier work
# Solubilities in water = format: physicochemical; conditions: water
# carragenin edema = test: Anti-inflammatory activity: carragenin edema test; format: in vivo; conditions: Rattus norvegicus, ip, substantially alkaline pH solution, read-out: % inhibition of carragenin edema; for inhibition in vivo at 100 mg/kg: 100 mg/kg i.p.; for inhibition in vivo at 200 mg/kg: 200 mg/kg i.p.; for inhibition in vivo at 300 mg/kg: 300 mg/kg i.p.
# How it was run: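 Male Wistar EOPS rats receive 0.1 ml of 5% carragenin suspension in physiological serum into the hind-paw metatarsal muscle, with test substance given i.p. in neutralized solution at the same time. Paw edema is measured by plethysmometry at several times after carragenin and reported as % inhibition against pH-matched physiological serum controls.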
# capillary permeability = test: Capillaroprotecting effects: capillary permeability; format: in vivo, conventional male Wistar rats
# Description: Capillaroprotecting effects
# The capillary permeability was determined by the method of Charlier et al, Arch. Inter. Physiol.
# [2] = i.p. toxicity in Swiss EOPS mice, mortality at 14 days; conditions: mouse, in vivo, ip, DMSO solution at 1/2, read-out: percentages of mortality at the end of 14 days
# Description: The i.p. toxicities of certain compounds of the present invention were determined using male and female Swiss EOPS mice for administrations in DMSO solution at 1/2 under a volume of P/100.
# Aldose Reductase [3] = molecular target: T1, Aldose Reductase (Bos taurus, UniProt P16116); test: Inhibition of aldose reductase in vitro (enzyme from beef eye lenses, glyceraldehyde substrate); format: biochemical; conditions: 5.10^-6 mole/l, in DMF solution
# T1 construct: The enzyme is extracted from beef eye lenses; from tissue; host or cells: beef eye lenses
# From the text: Inhibition of Aldose Reductase In Vitro
# The reoxidation of NADPH coupled to the enzymatic reaction was followed spectrophotometrically at 340 nm.
# COMT = molecular target: T2, COMT (Rattus norvegicus, UniProt P22734); test: Inhibition of COMT in vitro (enzyme from rat liver, 4-nitrocatechol substrate); format: biochemical; conditions: in dimethylsulfoxide solution, read-out: percentages of inhibition (COMT)
# T2 construct: The enzyme is extracted from rat liver; from tissue; host or cells: rat liver
# T2 sequence (P22734 1-221 isoform P22734-2): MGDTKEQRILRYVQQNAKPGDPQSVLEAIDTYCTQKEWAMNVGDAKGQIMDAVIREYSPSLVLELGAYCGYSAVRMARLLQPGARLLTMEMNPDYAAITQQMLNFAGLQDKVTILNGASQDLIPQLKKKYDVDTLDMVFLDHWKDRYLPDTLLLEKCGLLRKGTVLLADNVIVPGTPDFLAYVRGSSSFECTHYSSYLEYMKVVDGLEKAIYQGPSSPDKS
# Description: Inhibition of COMT in vitro The enzyme is extracted from rat liver by the method described by Axelrod et al, J. Biol. Chem., 233, 702(1958); its activity is measured in the presence of S-adenosyl methionine and using as substrate 4-nitrocatechol by the method described by Lee et al, J. Pharm. Sci., 66(7), 986(1977). The quantity of 4-nitrocatechol consumed was determined spectrophotometrically at 520 nm in alkaline medium.
smiles,measurement,setting,value
"C[C@@H]1O[C@@H](OC[C@H]2O[C@@H](Oc3c(-c4ccc(OCCO)c(OCCO)c4)oc4cc(OCCO)cc(O)c4c3=O)[C@H](O)[C@@H](O)[C@@H]2O)[C@H](O)[C@H](O)[C@H]1O [7, 3', 4'-tri-O-hydroxyethyl rutin]",inhibition of aldose reductase in vitro (in words),aldose reductase [1],practically inactive
"COc1ccc(C2CC(=O)c3c(O)cc(O[C@@H]4O[C@H](CO[C@@H]5O[C@@H](C)[C@H](O)[C@H]6OC(C)(C)O[C@@H]56)[C@@H](O)[C@H](O)[C@H]4O)cc3O2)cc1O (stereo partly drawn) [No. 18, 7-O-(2,3-O,O-isopropylidene-6-α-L-rhamnosyl-β-D-glucosyl)hesperitin]",solubility,Solubilities in water; read-out: Solubilities in water,0.9 mg/mL
same,inhibition in vivo at 100 mg/kg,carragenin edema; 1/2 h,0%
same,inhibition in vivo at 200 mg/kg,carragenin edema; 1/2 h,0%
same,inhibition in vivo at 300 mg/kg,carragenin edema; 1/2 h,0%
same,inhibition in vivo at 100 mg/kg,"carragenin edema; 1 h, 1 h 1/2",17%
same,inhibition in vivo at 100 mg/kg,"carragenin edema; 1 h, 1 h",0%
same,inhibition in vivo at 200 mg/kg,"carragenin edema; 1 h, 1 h 1/2",39%
same,inhibition in vivo at 200 mg/kg,"carragenin edema; 1 h, 1 h",18%
same,inhibition in vivo at 300 mg/kg,"carragenin edema; 1 h, 1 h 1/2",27%
same,inhibition in vivo at 300 mg/kg,"carragenin edema; 1 h, 1 h",0%
same,inhibition in vivo at 100 mg/kg,"carragenin edema; 2 h, 2 h",16%
same,inhibition in vivo at 200 mg/kg,"carragenin edema; 2 h, 2 h",42%
same,inhibition in vivo at 300 mg/kg,"carragenin edema; 2 h, 2 h",27%
same,inhibition in vivo at 100 mg/kg,"carragenin edema; 3 h, 3 h",13%
same,inhibition in vivo at 200 mg/kg,"carragenin edema; 3 h, 3 h",46%
same,inhibition in vivo at 300 mg/kg,"carragenin edema; 3 h, 3 h",21%
same,inhibition in vivo at 100 mg/kg,"carragenin edema; 4 h, 4 h",20%
same,inhibition in vivo at 200 mg/kg,"carragenin edema; 4 h, 4 h",52%
same,inhibition in vivo at 300 mg/kg,"carragenin edema; 4 h, 4 h",26%
same,inhibition in vivo at 100 mg/kg,"carragenin edema; 5 h, 5 h",21%
same,inhibition in vivo at 200 mg/kg,"carragenin edema; 5 h, 5 h",50%
same,inhibition in vivo at 300 mg/kg,"carragenin edema; 5 h, 5 h",16%
same,inhibition in vivo at 100 mg/kg,"carragenin edema; 6 h, 6 h",27%
same,inhibition in vivo at 200 mg/kg,"carragenin edema; 6 h, 6 h",55%
same,inhibition in vivo at 300 mg/kg,"carragenin edema; 6 h, 6 h",16%
same,percentage reduction of capillary permeability,capillary permeability; 10 mg/kg i.p.,24%
same,percentage reduction of capillary permeability,capillary permeability; 50 mg/kg i.p.,21%
same,percentage reduction of capillary permeability,capillary permeability; 75 mg/kg i.p.,8%
same,mortality at 336 h,[2]; 1000 mg/kg i.p.,0%
same,mortality at 336 h,[2]; 2000 mg/kg i.p.,0%
"C[C@@H]1O[C@@H](OC[C@H]2O[C@@H](Oc3c(-c4ccc(O)c(O)c4)oc4cc(O)cc(O)c4c3=O)[C@H](O)[C@@H](O)[C@@H]2O)[C@H](O)[C@H](O)[C@H]1O [Rutin, rutin, reference compound]",solubility,Solubilities in water,0.12 mg/mL
same,percentages of inhibition (aldose reductase),Aldose Reductase [3],0%
same,inhibition at 1000 µM,COMT; 10^-3 mole/l,63 to 68%
same,inhibition at 10 µM,COMT; 10^-5 mole/l,13%
same,inhibition of aldose reductase in vitro (in words),aldose reductase [1],inhibits aldose reductase in vitro
C[C@@H]1O[C@@H](OC[C@H]2O[C@@H](Oc3c(-c4ccc(O)c(O)c4)oc4cc(OCCO)cc(O)c4c3=O)[C@H](O)[C@@H](O)[C@@H]2O)[C@H](O)[C@H](O)[C@H]1O [7-O-hydroxyethyl rutin],inhibition of aldose reductase in vitro (in words),aldose reductase [1],practically inactive
"C[C@@H]1O[C@@H](OC[C@H]2O[C@@H](Oc3c(-c4ccc(OCCO)c(OCCO)c4)oc4cc(OCCO)cc(OCCO)c4c3=O)[C@H](O)[C@@H](O)[C@@H]2O)[C@H](O)[C@H](O)[C@H]1O [5,7, 3', 4'-tetra-O-hydroxyethyl rutin]",inhibition of aldose reductase in vitro (in words),aldose reductase [1],practically inactive
